# Assay results reported in PMC11594981 (International Journal of Molecular Sciences, 2024).
# Molecular target: T1, CYP3A4 (Homo sapiens, UniProt P08684)
# T1 construct: recombinant CYP3A4 (BACULOSOMES Plus reagent)
# Assay: fluorogenic substrate turnover by recombinant CYP3A4 (Vivid kit)
# Assay type: biochemical
# T1 sequence (P08684 2-503): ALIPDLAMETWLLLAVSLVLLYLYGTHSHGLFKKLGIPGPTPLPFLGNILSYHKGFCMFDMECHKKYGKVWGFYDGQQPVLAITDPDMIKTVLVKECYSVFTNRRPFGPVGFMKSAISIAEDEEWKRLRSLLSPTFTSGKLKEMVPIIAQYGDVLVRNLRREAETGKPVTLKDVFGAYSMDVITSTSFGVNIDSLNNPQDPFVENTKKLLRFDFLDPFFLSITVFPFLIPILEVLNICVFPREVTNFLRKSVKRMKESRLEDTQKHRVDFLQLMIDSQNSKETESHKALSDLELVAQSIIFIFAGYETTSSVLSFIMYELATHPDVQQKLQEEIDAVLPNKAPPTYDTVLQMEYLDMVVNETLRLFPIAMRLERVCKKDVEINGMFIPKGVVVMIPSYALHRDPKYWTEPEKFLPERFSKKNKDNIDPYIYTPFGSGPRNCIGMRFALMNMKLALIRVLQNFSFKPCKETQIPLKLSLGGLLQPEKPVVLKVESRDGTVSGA
structure (smiles),measurement,value
"N#Cc1cc2ccc(OCOCc3ccccc3)cc2oc1=O [BOMCC, 7-benzyloxymethoxy-3-cyano-coumarin]",fluorogenic substrate turnover by recombinant CYP3A4 (Vivid kit),Inhibition of BOMC transformation by CYP3A4 in the presence of ivermectin
